The results in this text go back to US12540129B2, “KIF18A inhibitors” (AMGEN INC., priority 2019, dated 2026).

The target in the test is T1, Recombinant human KIF18A (1-467 His-tagged) protein (Homo sapiens, UniProt Q8NI77).
T1 construct: Recombinant human KIF18A (1-467 His-tagged) protein; His; made in house
T1 sequence (Q8NI77 1-467): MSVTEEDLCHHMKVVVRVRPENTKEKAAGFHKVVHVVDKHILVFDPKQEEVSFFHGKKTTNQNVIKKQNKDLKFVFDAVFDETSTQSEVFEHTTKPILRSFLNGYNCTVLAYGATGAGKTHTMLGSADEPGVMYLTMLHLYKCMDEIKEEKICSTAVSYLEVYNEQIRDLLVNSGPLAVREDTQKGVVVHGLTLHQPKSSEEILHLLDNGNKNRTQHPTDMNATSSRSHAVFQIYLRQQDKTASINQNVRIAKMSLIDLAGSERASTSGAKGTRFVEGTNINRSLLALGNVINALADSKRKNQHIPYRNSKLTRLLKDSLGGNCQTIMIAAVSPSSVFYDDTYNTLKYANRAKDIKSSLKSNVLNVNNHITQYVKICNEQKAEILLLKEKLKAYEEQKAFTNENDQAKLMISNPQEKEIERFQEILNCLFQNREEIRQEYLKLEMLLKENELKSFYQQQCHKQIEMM
T1 sequence (P02550 whole entry partner): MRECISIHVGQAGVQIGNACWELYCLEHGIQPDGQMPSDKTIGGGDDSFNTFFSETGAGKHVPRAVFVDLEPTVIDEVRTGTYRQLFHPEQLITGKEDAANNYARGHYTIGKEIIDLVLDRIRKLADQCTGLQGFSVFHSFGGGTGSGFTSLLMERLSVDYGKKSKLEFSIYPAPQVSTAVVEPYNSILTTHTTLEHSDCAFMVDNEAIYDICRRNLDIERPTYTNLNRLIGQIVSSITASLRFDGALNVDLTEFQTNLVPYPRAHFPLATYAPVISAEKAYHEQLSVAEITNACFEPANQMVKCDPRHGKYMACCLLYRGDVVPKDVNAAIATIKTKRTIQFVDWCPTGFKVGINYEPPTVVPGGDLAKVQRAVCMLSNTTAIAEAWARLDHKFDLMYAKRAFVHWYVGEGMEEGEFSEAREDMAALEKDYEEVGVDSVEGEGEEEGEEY
T1 sequence (P02554 whole entry partner): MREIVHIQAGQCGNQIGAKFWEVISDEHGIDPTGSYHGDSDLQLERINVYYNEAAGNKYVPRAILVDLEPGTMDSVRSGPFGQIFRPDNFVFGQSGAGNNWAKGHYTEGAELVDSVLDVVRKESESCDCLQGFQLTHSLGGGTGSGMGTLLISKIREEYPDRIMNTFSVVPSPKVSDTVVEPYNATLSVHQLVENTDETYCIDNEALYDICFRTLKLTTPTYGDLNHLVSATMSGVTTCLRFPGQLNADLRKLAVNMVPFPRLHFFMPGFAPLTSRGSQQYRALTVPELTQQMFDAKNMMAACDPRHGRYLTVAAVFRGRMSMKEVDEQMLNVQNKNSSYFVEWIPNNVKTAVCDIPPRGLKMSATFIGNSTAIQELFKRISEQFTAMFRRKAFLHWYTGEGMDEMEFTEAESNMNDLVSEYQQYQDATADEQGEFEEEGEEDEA
Briefly: KIF18A Enzyme Assay: microtubule-stimulated ATPase activity (ADP-Glo). It counts as biochemical. As to conditions: 30 nM KIF18A, 75 μM ATP. The text has this:
KIF18A Enzyme Assay: Microtubule-stimulated ATPase activity assay is used to measure KIF18A enzyme activity after treatment with compound. Compounds were 2-fold serially diluted in DMSO (Sigma Inc) over 22-point concentration range. Recombinant human KIF18A (1-467 His-tagged) protein was expressed using a baculovirus system and purified by affinity chromatography by Amgen Inc. Concentrations of KIF18A protein, microtubules (MT), and ATP in the reaction were optimized for standardized homogenous enzyme assay using ADP-Glorm Kinase/ATPase Assay Kit (Promega Inc). The assay measures ADP formed from the ATPase reaction. […] Read luminescence using EnVision microplate reader with ultra-luminescence module (Perkin Elmer Inc). Concentration-response curve-fitting and IC50 determination was performed using Genedata Screener Software (Standard 15.0.1, Genedata Inc) with a four-parameter logistic regression fit model.
Table A provides data for compounds exemplified in the present application and priority document thereof, as representative compounds of the present invention, as follows: chemical name (as named by either ACD software or ChemDraw (Professional 15.0)) and biological data (IC50 in μM). Ex. # refers to Example No.
Background: ADP-Glo turns the ADP formed in a reaction into a luminescent signal.
For `CC(C)(C)NS(=O)(=O)c1cccc(NC(=O)c2ccc(N[C@@H]3CCOC[C@H]3O)nc2N2CCC3(CC2)CC3)c1` [Example 102-24, N-(3-(N-(tert-butyl)sulfamoyl)phenyl)-6-(((3S,4R)-3-hydroxytetrahydro-2H-pyran-4-yl)amino)-2-(6-azaspiro[2.5]octan-6-yl)nicotinamide], the IC50 (in general, the concentration at which inhibition is half-maximal) came to 259 nM.
Consider `CC(C)(C)NS(=O)(=O)c1cccc(NC(=O)c2ccc(NC3COC3)nc2N2CCC3(CC2)CC3)c1` [Example 102-25, N-(3-(N-(tert-butyl)sulfamoyl)phenyl)-6-(oxctan-3-ylamino)-2-(6-azaspiro[2.5]octan-6-yl)nicotinamide], for which the IC50 was determined as 84 nM.
For `CC(C)(C)NS(=O)(=O)c1cccc(NC(=O)c2ccc(NC3(C)COC3)nc2N2CCC3(CC2)CC3)c1` [Example 102-26, N-(3-(N-(tert-butyl)sulfamoyl)phenyl)-6-((3-methyloxetan-3-yl)amino)-2-(6-azaspiro[2.5]octan-6-yl)nicotinamide], the IC50 worked out at 56 nM.
With `CC(C)(C)NS(=O)(=O)c1cccc(NC(=O)c2ccc(NC3(CO)COC3)nc2N2CCC3(CC2)CC3)c1` [Example 102-27, N-(3-(N-(tert-butyl)sulfamoyl)phenyl)-6-((3-(hydroxymethyl)oxetan-3-yl)amino)-2-(6-azaspiro[2.5]octan-6-yl)nicotinamide], the IC50 was determined as 80 nM.
With `CC(C)(C)NS(=O)(=O)c1cccc(NC(=O)c2ccc(NC3(CO)CCC3)nc2N2CCC3(CC2)CC3)c1` [Example 102-28, N-(3-(N-(tert-butyl)sulfamoyl)phenyl)-6-((1-(hydroxymethyl)cyclobutyl)amino)-2-(6-azaspiro[2.5]octan-6-yl)nicotinamide], the IC50 was 71 nM.
Take `CC(C)(C)NS(=O)(=O)c1cccc(NC(=O)c2ccc(N[C@H]3C[C@@H](O)C3)nc2N2CCC3(CC2)CC3)c1` [Example 102-29, N-(3-(N-(tert-butyl)sulfamoyl)phenyl)-6-(((1S,3S)-3-hydroxycyclobutyl)amino)-2-(6-azaspiro[2.5]octan-6-yl)nicotinamide]: the IC50 is 98 nM.
Regarding `CC(C)(C)NS(=O)(=O)c1cccc(NC(=O)c2ccc(NCCCO)nc2N2CCC3(CC2)CC3)c1` [Example 102-30, N-(3-(N-(tert-butyl)sulfamoyl)phenyl)-6-((3-hydroxypropyl)amino)-2-(6-azaspiro[2.5]octan-6-yl)nicotinamide], the IC50 turned out to be 81 nM.
Next, `CC(C)(C)NS(=O)(=O)c1cccc(NC(=O)c2ccc(NCc3ccccc3)nc2N2CCC3(CC2)CC3)c1` [Example 102-31, 6-(benzylamino)-N-(3-(N-(tert-butyl)sulfamoyl)phenyl)-2-(6-azaspiro[2.5]octan-6-yl)nicotinamide]: 317 nM.
Next, `CC(C)(O)CNc1ccc(C(=O)Nc2cccc(S(=O)(=O)C3CCCC3)c2)c(N2CCC3(CC2)CC3)n1` [Example 103, N-(3-(Cyclopentylsulfonyl)phenyl)-6-((2-hydroxy-2-methylpropyl)amino)-2-(6-azaspiro[2.5]octan-6-yl)nicotinamide]: 58 nM; `COCCNc1ccc(C(=O)Nc2cccc(S(=O)(=O)C3CCCC3)c2)c(N2CCC3(CC2)CC3)n1` [Example 103-1, N-(3-(cyclopentylsulfonyl)phenyl)-6-((2-methoxyethyl)amino)-2-(6-azaspiro[2.5]octan-6-yl)nicotinamide]: 60 nM.
Next, `O=C(Nc1cccc(S(=O)(=O)C2CCCC2)c1)c1ccc(NCCCO)nc1N1CCC2(CC1)CC2` [Example 103-2, N-(3-(cyclopentylsulfonyl)phenyl)-6-((3-hydroxypropyl)amino)-2-(6-azaspiro[2.5]octan-6-yl)nicotinamide]: 47 nM.
In the case of `CC(C)(C)Nc1ccc(C(=O)Nc2cccc(S(=O)(=O)C3CCCC3)c2)c(N2CCC3(CC2)CC3)n1` [Example 103-3, 6-(tert-butylamino)-N-(3-(cyclopentylsulfonyl)phenyl)-2-(6-azaspiro[2.5]octan-6-yl)nicotinamide], the half-inhibitory concentration (IC50) was 90 nM.
Next, `O=C(Nc1cccc(S(=O)(=O)C2CCCC2)c1)c1ccc(NC2(CO)CC2)nc1N1CCC2(CC1)CC2` [Example 103-4, N-(3-(cyclopentylsulfonyl)phenyl)-6-((1-(hydroxymethyl)cyclopropyl)amino)-2-(6-azaspiro[2.5]octan-6-yl)nicotinamide]: 39 nM; `O=C(Nc1cccc(S(=O)(=O)C2CCCC2)c1)c1ccc(NC2(CO)CCC2)nc1N1CCC2(CC1)CC2` [Example 103-5, N-(3-(cyclopentylsulfonyl)phenyl)-6-((1-(hydroxymethyl)cyclobutyl)amino)-2-(6-azaspiro[2.5]octan-6-yl)nicotinamide]: 54 nM; `O=C(Nc1cccc(S(=O)(=O)C2CCCC2)c1)c1ccc(NC2(CO)COC2)nc1N1CCC2(CC1)CC2` [Example 103-6, N-(3-(cyclopentylsulfonyl)phenyl)-6-((3-(hydroxymethyl)oxetan-3-yl)amino)-2-(6-azaspiro[2.5]octan-6-yl)nicotinamide]: 39 nM.
Next, `CC(C)(CCO)Nc1ccc(C(=O)Nc2cccc(S(=O)(=O)C3CCCC3)c2)c(N2CCC3(CC2)CC3)n1` [Example 103-7, N-(3-(cyclopentylsulfonyl)phenyl)-6-((4-hydroxy-2-methylbutan-2-yl)amino)-2-(6-azaspiro[2.5]octan-6-yl)nicotinamide]: 47 nM; `O=C(Nc1cccc(S(=O)(=O)C2CCCC2)c1)c1ccc(NCC2(O)CC2)nc1N1CCC2(CC1)CC2` [Example 103-8, N-(3-(cyclopentylsulfonyl)phenyl)-6-(((1-hydroxycyclopropyl)methyl)amino)-2-(6-azaspiro[2.5]octan-6-yl)nicotinamide]: 42 nM.
For `C[C@@H](CO)Nc1ccc(C(=O)Nc2cccc(S(=O)(=O)C3CCCC3)c2)c(N2CCC3(CC2)CC3)n1` [Example 103-9, (S)-N-(3-(cyclopentylsulfonyl)phenyl)-6-((1-hydroxypropan-2-yl)amino)-2-(6-azaspiro[2.5]octan-6-yl)nicotinamide], the IC50 worked out at 42 nM.
`C[C@H](CO)Nc1ccc(C(=O)Nc2cccc(S(=O)(=O)C3CCCC3)c2)c(N2CCC3(CC2)CC3)n1` [Example 103-10, (R)-N-(3-(cyclopentylsulfonyl)phenyl)-6-((1-hydroxypropan-2-yl)amino)-2-(6-azaspiro[2.5]octan-6-yl)nicotinamide]: the IC50 stood at 42 nM.
Take `C[C@@H](O)CNc1ccc(C(=O)Nc2cccc(S(=O)(=O)C3CCCC3)c2)c(N2CCC3(CC2)CC3)n1` [Example 103-11, (R)-N-(3-(cyclopentylsulfonyl)phenyl)-6-((2-hydroxypropyl)amino)-2-(6-azaspiro[2.5]octan-6-yl)nicotinamide]: the IC50 worked out at 76 nM.
As to `C[C@H](O)CNc1ccc(C(=O)Nc2cccc(S(=O)(=O)C3CCCC3)c2)c(N2CCC3(CC2)CC3)n1` [Example 103-12, (S)-N-(3-(cyclopentylsulfonyl)phenyl)-6-((2-hydroxypropyl)amino)-2-(6-azaspiro[2.5]octan-6-yl)nicotinamide], the IC50 worked out at 65 nM.
Next, `O=C(Nc1cccc(S(=O)(=O)C2CCCC2)c1)c1ccc(NC2COC2)nc1N1CCC2(CC1)CC2` [Example 103-13, N-(3-(cyclopentylsulfonyl)phenyl)-6-(oxctan-3-ylamino)-2-(6-azaspiro[2.5]octan-6-yl)nicotinamide]: 43 nM; `O=C(Nc1cccc(S(=O)(=O)C2CCCC2)c1)c1ccc(N[C@@H]2CC[C@H]2O)nc1N1CCC2(CC1)CC2` [Example 103-14, N-(3-(cyclopentylsulfonyl)phenyl)-6-(((1R,2R)-2-hydroxycyclobutyl)amino)-2-(6-azaspiro[2.5]octan-6-yl)nicotinamide]: 161 nM.
On to `O=C(Nc1cccc(S(=O)(=O)C2CCCC2)c1)c1ccc(N[C@@H]2CCOC2)nc1N1CCC2(CC1)CC2` [Example 103-15, (R)-N-(3-(cyclopentylsulfonyl)phenyl)-2-(6-azaspiro[2.5]octan-6-yl)-6-((tetrahydrofuran-3-yl)amino)nicotinamide], for which the IC50 worked out at 51 nM.
To `O=C(Nc1cccc(S(=O)(=O)C2CCCC2)c1)c1ccc(N[C@H]2CCOC2)nc1N1CCC2(CC1)CC2` [Example 103-16, (S)-N-(3-(cyclopentylsulfonyl)phenyl)-2-(6-azaspiro[2.5]octan-6-yl)-6-((tetrahydrofuran-3-yl)amino)nicotinamide] belongs 115 nM; to `O=C(Nc1cccc(S(=O)(=O)C2CCCC2)c1)c1ccc(NCC2(O)CCC2)nc1N1CCC2(CC1)CC2` [Example 103-17, N-(3-(cyclopentylsulfonyl)phenyl)-6-(((1-hydroxycyclobutyl)methyl)amino)-2-(6-azaspiro[2.5]octan-6-yl)nicotinamide], 168 nM; to `CC(C)(O)C(C)(C)Nc1ccc(C(=O)Nc2cccc(S(=O)(=O)C3CCCC3)c2)c(N2CCC3(CC2)CC3)n1` [Example 103-18, N-(3-(cyclopentylsulfonyl)phenyl)-6-((3-hydroxy-2,3-dimethylbutan-2-yl)amino)-2-(6-azaspiro[2.5]octan-6-yl)nicotinamide], 109 nM.
`O=C(Nc1cccc(S(=O)(=O)C2CCCC2)c1)c1ccc(NC2(CCO)CC2)nc1N1CCC2(CC1)CC2` [Example 103-19, N-(3-(cyclopentylsulfonyl)phenyl)-6-((1-(2-hydroxyethyl)cyclopropyl)amino)-2-(6-azaspiro[2.5]octan-6-yl)nicotinamide]: the IC50 worked out at 55 nM.
